Results published in ChEMBL document CHEMBL1139858, “Design, synthesis, and X-ray structure of potent memapsin 2 (beta-secretase) inhibitors with isophthalamide derivatives as the P2-P3-ligands” (J Med Chem, 2007).

Assays:
Beta-secretase 1 [1] = biological target: T1, Beta-secretase 1 (Homo sapiens, UniProt P56817)
Description: Inhibition of recombinant memapsin 2

Beta-secretase 1 [2] = biological target: T1, Beta-secretase 1; remark: listed apart in the source
Description: Inhibition of memapsin 2 expressed in CHO cells

Cathepsin D = Cathepsin D (Homo sapiens, UniProt P07339)
Chain of Cathepsin D (P07339 65-162 limits assumed): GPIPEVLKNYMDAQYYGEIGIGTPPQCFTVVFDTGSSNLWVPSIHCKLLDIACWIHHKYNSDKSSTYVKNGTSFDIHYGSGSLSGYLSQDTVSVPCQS
Chain of Cathepsin D (P07339 169-412 limits assumed): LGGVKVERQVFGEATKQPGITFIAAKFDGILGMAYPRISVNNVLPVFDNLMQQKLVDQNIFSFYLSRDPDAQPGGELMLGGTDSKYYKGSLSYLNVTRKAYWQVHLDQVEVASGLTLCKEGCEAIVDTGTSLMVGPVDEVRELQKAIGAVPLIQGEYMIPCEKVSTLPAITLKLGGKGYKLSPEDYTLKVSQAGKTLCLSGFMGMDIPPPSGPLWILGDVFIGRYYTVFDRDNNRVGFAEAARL
Description: Inhibition of human cathepsin D

T1 sequence (P56817 whole entry): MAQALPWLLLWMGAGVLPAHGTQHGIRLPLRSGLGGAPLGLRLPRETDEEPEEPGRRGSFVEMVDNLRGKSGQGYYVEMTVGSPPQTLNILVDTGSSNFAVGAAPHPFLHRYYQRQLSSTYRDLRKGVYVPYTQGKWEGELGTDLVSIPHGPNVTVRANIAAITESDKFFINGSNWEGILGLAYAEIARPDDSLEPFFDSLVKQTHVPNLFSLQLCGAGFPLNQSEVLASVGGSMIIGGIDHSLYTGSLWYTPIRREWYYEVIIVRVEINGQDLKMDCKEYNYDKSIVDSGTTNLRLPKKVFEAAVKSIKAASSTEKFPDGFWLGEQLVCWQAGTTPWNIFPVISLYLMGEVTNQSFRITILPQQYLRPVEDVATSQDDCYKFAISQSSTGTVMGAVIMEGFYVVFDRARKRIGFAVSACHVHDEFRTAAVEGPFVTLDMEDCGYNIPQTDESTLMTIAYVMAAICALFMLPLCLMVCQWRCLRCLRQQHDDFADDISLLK

| Structure (SMILES) | Ki (Beta-secretase 1 [1]) | IC50 (Beta-secretase 1 [2]) | Ki (Cathepsin D) |
| --- | --- | --- | --- |
| CCCNC(=O)c1cccc(C(=O)N[C@@H](CC(C)C)[C@@H](O)C[C@@H](C)C(=O)N[C@H](C(=O)NC(C)C)C(C)C)c1 | 788 nM | – | – |
| CC(C)C[C@H](NC(=O)c1cc(C(=O)N[C@H](CO)c2ccccc2)cc(N(C)S(C)(=O)=O)c1)[C@@H](O)C[C@@H](C)C(=O)N[C@H](C(=O)NC(C)C)C(C)C | 438 nM | 190000 nM | – |

The next lines start with the values.

| Ki (Beta-secretase 1 [1]) | IC50 (Beta-secretase 1 [2]) | Ki (Cathepsin D) | Structure (SMILES) |
| --- | --- | --- | --- |
| 27 nM | 10300 nM | 490 nM | Cc1nc(C(C)NC(=O)c2cc(C(=O)N[C@@H](CC(C)C)[C@@H](O)C[C@@H](C)C(=O)N[C@H](C(=O)NC(C)C)C(C)C)cc(N(C)S(C)(=O)=O)c2)c(C)o1 (some centres not stated) |
| 52.5 nM | 3600 nM | 483 nM | CCCNC(=O)c1cc(C(=O)N[C@@H](CC(C)C)[C@@H](O)C[C@@H](C)C(=O)N[C@H](C(=O)NC(C)C)C(C)C)cc(N(C)S(C)(=O)=O)c1 |
| 1.8 nM | 1800 nM | 245 nM | Cc1nc(CNC(=O)c2cc(C(=O)N[C@@H](CC(C)C)[C@@H](O)C[C@@H](C)C(=O)N[C@H](C(=O)NC(C)C)C(C)C)cc(N(C)S(C)(=O)=O)c2)c(C)o1 |
